Assay results as given in US20240360409A1, “METHOD FOR PRODUCING HIGHLY PROLIFERATIVE CELL, AND HIGHLY PROLIFERATIVE CELL AND USE THEREOF” (TOKYO MEDICAL UNIVERSITY, priority 2021, published 2024).

Test system: Normal Human Astrocytes (NHA)
Assay: Long-term culturing of human astrocytes using medium containing inhibitor (Example 1)
Type: cell-based
Details: for Number of days up to day of final passage / Passage number: NHA, 41 days of culturing, Y 10 μM, A 0.5 μM
Description: Long-term culturing of human astrocytes was performed using the following materials, reagents, and products for culturing.
• Normal Human Astrocytes (NHA) (CC-2565, Lonza Group AG)
• Culture medium: AGM Astrocyte Growth Medium Bullet Kit (CC-3186, Lonza Group AG) (composition of AGM: basal medium, FBS (3% (v/v)), L-glutamine, ascorbic acid, hEGF, insulin, and antibiotic) • Inhibitor Y: CultureSure (registered trademark) Y-27632 (034-24024, FUJIFILM Wako Pure Chemical Corporation), final concentration: 10 μM • Inhibitor A: CultureSure (registered trademark) A-83-01(035-24113, FUJIFILM Wako Pure Chemical Corporation), final concentration: 0.5 μM • Cell detachment agent: Accutase (AT104, Innovative Cell Technologies, Inc.) • Cell buffer: phosphate buffered saline (Dulbecco's formula; without calcium and magnesium) (BNDSBN200, KAC Co., Ltd.) • Medium for cell freezing: CELLBANKER 1 (CB011 TaKaRa Bio Inc. (NIPPON ZENYAKU KOGYO CO., LTD.)) • Cell culturing dish 60 mm (150462, Thermo Fisher Scientific Inc.) • Cell culturing dish 100 mm (150466, Thermo Fisher Scientific Inc.) • Cell culturing dish 150 mm (150468, Thermo Fisher Scientific Inc.) • Stericup Quick Release-GP Sterile Vacuum Filtration System (S2GPU02RE, Merck Millipore) • Inhibitor-free medium for culture supernatant collection: Dulbecco's Modied Eagle Medium (DMEM) (C11995500CP, Gibco (registered trademark), Thermo Fisher Scientific Inc.) and N-2 Supplement (x100) (17502-048, Gibco (registered trademark), Thermo Fisher Scientific Inc.)
The long-term culturing was performed in accordance with the following procedure. A frozen tube of the human astrocyte cells (NHA) was thawed in a water bath at 37° C. Next, the lysed cells were transferred to the culture medium so that the total volume was 10 mL and subjected to centrifugation at 180×g for 3 minutes at room temperature, and then the medium was removed. The cells were divided into 4 groups; a group to which only the inhibitor Y was added (hereinafter, the NHA-Y group), a group to which only the inhibitor A was added (hereinafter, the NHA-A group), a group to which the inhibitor Y and the inhibitor A were added (hereinafter, the NHA-YA group), and a group to Ih no inhibitor was added (normal group).
The medium was replaced every other day or every two days with fresh culture medium containing each inhibitor (or not containing any inhibitor). When the confluency reached 80 to 90%, the cells were detached using the cell detachment agent, and the cells were suspended in the culture medium containing each inhibitor (or not containing any inhibitor) and passaged into a 6-well plate at a seeding density of 4.2×10^3 cells/cm^2. While continuing the passaging, the culturing was performed for 41 days in the culture medium containing each inhibitor (or not containing any inhibitor).
The cell passage number and the number of days up to the day of final passage in each group are indicated in the following Table 1, and the correlations between the number of culturing days and the total number of cells are indicated in Table 2.

In the case of `Cc1cccc(-c2nn(C(=S)Nc3ccccc3)cc2-c2ccnc3ccccc23)n1` [A, 3-(6-methylpyridin-2-yl)-4-(4-quinolyl)-1-phenylthiocarbamoyl-1H-pyrazole], the “Number of days up to day of final passage” value is reported as 30 days, the Passage number is reported as 4 times and the Number of cells (culturing day 0) is reported as 8.00 ×10^4 cells. For the same molecule, the Number of cells (culturing day 5) was 55.75 ×10^4 cells, the Number of cells (culturing day 15) was 264.81 ×10^4 cells and the Number of cells (culturing day 23) was 595.83 ×10^4 cells. For the same molecule, the Number of cells (culturing day 30) was 1005.46 ×10^4 cells.

`C[C@@H](N)[C@H]1CC[C@H](C(=O)Nc2ccncc2)CC1` [Y] was tested, and the “Number of days up to day of final passage” value was 29 days, the Passage number was 5 times and the Number of cells (culturing day 0) was 8.00 ×10^4 cells. The Number of cells (culturing day 5) was 87.25 ×10^4 cells, the Number of cells (culturing day 8) was 245.39 ×10^4 cells and the Number of cells (culturing day 13) was 391.09 ×10^4 cells. For the same molecule, the Number of cells (culturing day 19) was 733.30 ×10^4 cells and the Number of cells (culturing day 29) was 756.21 ×10^4 cells.
